# Reference: article PMC11448233, “High-throughput screening identification of apigenin that reverses the colistin resistance of mcr-1-positive pathogens” (Microbiology Spectrum, 2024)
# How the values were obtained:
# mcr-1 protein [1] = target: T1, mcr-1 protein (Escherichia coli, UniProt A0A0R6L508); test: nano differential scanning fluorimetry; format: binding; conditions: apigenin 32 µg/mL, mcr-1 100 µg/mL, PBS, 20 min incubation, 25-95 °C at 5 °C/min; Tm lowered (destabilised)
# T1 construct: gene mcr1; mcr-1 amplified from K. pneumoniae ZJ02, pET28a(+) NheI/XhoI, E. coli BL21(DE3), Ni-NTA; tag removal not mentioned
# mcr-1 protein [2] = target: T1, mcr-1 protein; test: microscale thermophoresis; format: binding
# T1 sequence (A0A0R6L508 whole entry): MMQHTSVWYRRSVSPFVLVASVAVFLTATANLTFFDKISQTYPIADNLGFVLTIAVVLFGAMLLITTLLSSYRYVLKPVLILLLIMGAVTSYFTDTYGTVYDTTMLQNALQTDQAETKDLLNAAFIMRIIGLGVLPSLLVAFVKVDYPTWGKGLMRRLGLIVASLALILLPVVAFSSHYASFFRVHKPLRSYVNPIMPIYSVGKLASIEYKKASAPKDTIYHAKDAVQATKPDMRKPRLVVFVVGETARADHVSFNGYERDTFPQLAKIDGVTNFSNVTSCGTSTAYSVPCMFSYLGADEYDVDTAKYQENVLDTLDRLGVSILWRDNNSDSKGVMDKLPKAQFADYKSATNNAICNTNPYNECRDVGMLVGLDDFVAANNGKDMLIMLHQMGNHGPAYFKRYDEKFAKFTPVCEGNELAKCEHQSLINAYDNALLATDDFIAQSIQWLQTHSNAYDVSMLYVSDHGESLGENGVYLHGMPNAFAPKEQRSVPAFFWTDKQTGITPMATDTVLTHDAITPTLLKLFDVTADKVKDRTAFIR
compound,measurement,setting,value
O=c1cc(-c2ccc(O)cc2)oc2cc(O)cc(O)c12 [apigenin],Tm decrease,mcr-1 protein [1],5.7 °C
same,Kd,mcr-1 protein [2],4.35 µM
